Reference: the supplement of paper PMC10307832

Assays:
Assay in all cases: relative viability (nuclei count vs DMSO), 5 days (fraction); higher = more cells survive
TPCA-1 + Olaparib = compound: C1=CC(=CC=C1C2=CC(=C(S2)NC(=O)N)C(=O)N)F [TPCA-1] + O=C(c1cc(Cc2n[nH]c(=O)c3ccccc23)ccc1F)N1CCN(C(=O)C2CC2)CC1 [Olaparib] (partner 8 µM)
Procedure, shortened: (§1)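 Dosing by pin tool came one day after lung cancer cell lines were seeded in 1536-well plates, using either one drug or a fixed anchor-drug dose plus five library-drug doses (not always all listed) in √10 steps. After 5 days, nuclei were counted on 4× images. Relative viability is treated-well nuclei count divided by vehicle-well nuclei count, and values are medians of duplicate plates.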

TPCA-1 + Lapatinib = compound: C1=CC(=CC=C1C2=CC(=C(S2)NC(=O)N)C(=O)N)F [TPCA-1] + CS(=O)(=O)CCNCc1ccc(-c2ccc3ncnc(Nc4ccc(OCc5cccc(F)c5)c(Cl)c4)c3c2)o1 [Lapatinib] (partner 2 µM)
Procedure, shortened: as §1

[1] = compound: C1/C(=C\C2=CC=CS2)/C(=O)/C(=C/C3=CC=CS3)/C1 + CC(=O)c1c(C)c2cnc(Nc3ccc(N4CCNCC4)cn3)nc2n(C2CCCC2)c1=O [Palbociclib] (partner 0.5 µM)
Procedure, shortened: as §1

[2] = compound: C1/C(=C\C2=CC=CS2)/C(=O)/C(=C/C3=CC=CS3)/C1 + CS(=O)(=O)N1CCN(Cc2cc3nc(-c4cccc5[nH]ncc45)nc(N4CCOCC4)c3s2)CC1 [Pictilisib] (partner 1 µM)
Procedure, shortened: as §1

Row | Cell Line | relative viability (TPCA-1 + Olaparib; first compound 0.04 µM) | relative viability (TPCA-1 + Olaparib; first compound 0.1265 µM) | relative viability (TPCA-1 + Olaparib; first compound 0.4 µM) | relative viability (TPCA-1 + Olaparib; first compound 1.265 µM) | relative viability (TPCA-1 + Olaparib; first compound 4 µM) | relative viability (TPCA-1 + Lapatinib; first compound 0.04 µM) | relative viability (TPCA-1 + Lapatinib; first compound 0.1265 µM) | relative viability (TPCA-1 + Lapatinib; first compound 0.4 µM) | relative viability (TPCA-1 + Lapatinib; first compound 1.265 µM) | relative viability (TPCA-1 + Lapatinib; first compound 4 µM) | relative viability ([1]; first compound 0.2 µM) | relative viability ([1]; first compound 0.6325 µM) | relative viability ([1]; first compound 2 µM) | relative viability ([1]; first compound 20 µM) | relative viability ([2]; first compound 0.2 µM) | relative viability ([2]; first compound 0.6325 µM) | relative viability ([2]; first compound 2 µM) | relative viability ([2]; first compound 6.325 µM) | relative viability ([2]; first compound 20 µM) | relative viability ([1]; first compound 6.325 µM)
1 | NCI-H727 | 0.86 | 0.69 | 0.666 | 0.57 | 0.534 | 0.83 | 0.772 | 0.694 | 0.815 | 0.738 | 0.632 | 0.678 | 0.61 | 0.669 | 0.328 | 0.419 | 0.609 | 0.21 | 0.455 | –
2 | HARA | 0.884 | 0.765 | 1.09 | 0.742 | 0.656 | 0.744 | 0.988 | 0.791 | 0.722 | 0.691 | 0.278 | 0.238 | 0.337 | 0.32 | 0.452 | 0.448 | 0.508 | 0.504 | 0.445 | 0.196
3 | NCI-H2228 | 0.731 | 0.624 | 0.789 | 0.56 | 0.432 | 1.54 | 0.867 | 1.32 | 0.853 | 0.537 | 0.784 | 0.697 | 0.61 | 0.686 | 0.337 | 0.362 | 0.479 | 0.295 | 0.287 | 0.793
4 | LCLC-97TM1 | 0.301 | 0.237 | 0.374 | 0.346 | 0.216 | 1.47 | 0.719 | 1.3 | 0.852 | 0.518 | 0.255 | 0.228 | 0.203 | 0.196 | 0.209 | 0.28 | 0.198 | 0.235 | 0.159 | 0.21
5 | LC-2-ad | 0.689 | 0.783 | 0.688 | 0.745 | 0.578 | 0.986 | 0.933 | 1.02 | 0.953 | 0.186 | 0.526 | 0.483 | 0.488 | 0.481 | 0.464 | 0.525 | 0.482 | 0.51 | 0.425 | 0.333
6 | SK-LU-1 | 0.544 | 0.37 | 0.428 | 0.418 | 0.315 | 0.799 | 0.841 | 0.888 | 0.698 | 0.569 | 0.39 | 0.443 | 0.427 | 0.399 | 0.583 | 0.709 | 0.649 | 0.56 | 0.665 | 0.357
7 | EKVX | 0.963 | – | 0.837 | 0.568 | 0.727 | 0.217 | 0.184 | 0.241 | 0.198 | 0.205 | 0.383 | 0.388 | 0.367 | 0.409 | 0.44 | 0.431 | 0.415 | 0.34 | 0.467 | –
8 | HCC-827 | 0.678 | 0.62 | 0.772 | 0.609 | 0.367 | 0.193 | 0.198 | 0.188 | 0.166 | 0.132 | 0.487 | 0.481 | 0.522 | 0.525 | 1.12 | 1 | 1.1 | 0.933 | 1.01 | 0.463
9 | NCI-H650 | 0.4 | 0.323 | 0.408 | 0.385 | 0.354 | 1.03 | 1.05 | 0.93 | 0.357 | 0.487 | 0.431 | 0.33 | 0.345 | 0.356 | 0.998 | 0.801 | 0.834 | 0.821 | 0.938 | 0.322
10 | CAL-12T | 0.621 | 0.734 | 0.732 | 0.638 | 0.753 | 0.638 | 0.582 | 0.708 | 0.38 | 0.389 | 0.531 | 0.654 | 0.555 | 0.489 | 0.381 | 0.464 | 0.578 | 0.352 | 0.377 | 0.49
11 | NCI-H2342 | 0.487 | 0.351 | 0.44 | 0.423 | 0.325 | – | – | – | – | – | 0.511 | 0.568 | 0.531 | 0.516 | – | – | – | – | – | 0.482
12 | SW 900 | – | – | 0.894 | 0.935 | 0.644 | – | – | – | – | – | 0.578 | 0.524 | 0.616 | 0.653 | – | – | – | – | – | 0.451
13 | IA-LM | 0.818 | 0.834 | 0.846 | 0.765 | 0.72 | 0.64 | 0.804 | 0.87 | 0.626 | 0.896 | – | – | – | – | 0.396 | 0.399 | 0.31 | 0.369 | 0.359 | –
14 | EPLC-272H | 0.992 | 0.709 | 0.839 | 0.455 | 0.372 | 1.28 | 0.829 | 0.947 | 0.954 | 0.775 | 0.326 | 0.327 | 0.356 | 0.345 | 0.33 | 0.315 | 0.396 | 0.39 | 0.306 | 0.213
15 | A-427 | 0.818 | 0.686 | 0.778 | 0.777 | 0.65 | 1.17 | 0.901 | 1.05 | 0.989 | 0.907 | 0.546 | 0.552 | 0.519 | 0.5 | 0.761 | 0.82 | 0.923 | 0.706 | 0.733 | 0.481
16 | NCI-H647 | 0.763 | 0.437 | 0.66 | 0.525 | 0.358 | 1.34 | 0.919 | 1.06 | 0.671 | 0.466 | 0.441 | 0.442 | 0.378 | 0.405 | 0.439 | 0.329 | 0.563 | 0.382 | 0.379 | 0.398
17 | NCI-H1975 | 0.843 | 0.72 | 0.806 | 0.735 | 0.6 | 0.941 | 0.75 | 0.906 | 0.714 | 0.494 | 0.661 | 0.547 | 0.426 | 0.549 | 0.314 | 0.265 | 0.328 | 0.26 | 0.265 | 0.506
